Experimental data reported in PMC9481026 (PLoS ONE, 2022).
Values after ≈ are worked out from the molar mass of the structure shown. Like-named read-outs stand apart in the source and are kept apart here.

Legend:
RVFV strain MP-12 [1] = experiment: microbe, parasite or virus in culture; type: cell-based, Rift Valley fever virus; details: read-out: A549 EC50
Human RNase H1 = molecular target: T1, Human RNase H1 (Homo sapiens, UniProt O60930); experiment: biochemical
T1 construct: made in house; host or cells: E. coli
T1 sequence (O60930 1-286): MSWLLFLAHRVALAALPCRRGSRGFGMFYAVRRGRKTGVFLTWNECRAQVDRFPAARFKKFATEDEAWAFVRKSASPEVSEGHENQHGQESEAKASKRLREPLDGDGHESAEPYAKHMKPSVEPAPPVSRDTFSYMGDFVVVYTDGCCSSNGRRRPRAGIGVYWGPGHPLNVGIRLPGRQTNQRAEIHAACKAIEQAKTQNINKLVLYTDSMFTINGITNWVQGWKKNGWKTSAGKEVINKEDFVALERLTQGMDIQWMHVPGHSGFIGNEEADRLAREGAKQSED

RVFV strain MP-12 [2] = experiment: microbe, parasite or virus in culture; type: cell-based, Rift Valley fever virus
RVFV MP-12 = experiment: microbe, parasite or virus in culture; type: cell-based, Rift Valley fever virus; details: read-out: Estimated EC50
C. neoformans = experiment: microbe, parasite or virus in culture; type: cell-based; details: for MIC80: Cryptococcus neoformans, read-out: C. neoformans (MIC80, μM)
ZIKV = experiment: microbe, parasite or virus in culture; type: cell-based, Zika virus; details: read-out: ZIKV EC50
LACV = experiment: microbe, parasite or virus in culture; type: cell-based, La Crosse virus; details: read-out: LACV EC50
Staphylo-coccus spp. = experiment: organism not typed; type: cell-based; details: for MIC80: read-out: Staphylo-coccus spp. (MIC80, μM)
E. coli = experiment: microbe, parasite or virus in culture; type: cell-based; details: for MIC80: Escherichia coli, read-out: E. coli (MIC80, μM)
in vitro [3] = details: human
in vitro [4] = details: African green monkey
[5] = read-out: Human RNase H1 (IC50)
[6] = Rift Valley fever virus, Vero, 24 h

| Structure (SMILES) | EC50 (RVFV strain MP-12 [1]) | IC50 (Human RNase H1; [5]) | EC50 (RVFV strain MP-12 [2]; read-out: EC50) | EC50 (RVFV strain MP-12 [2]; read-out: Vero EC50) | CC50 (Vero cells) | CC50 (A549 cells) | EC50 (RVFV MP-12) | C. neoformans (MIC80, μM) (C. neoformans) | EC50 (ZIKV) | EC50 (LACV) | Staphylo-coccus spp. (MIC80, μM) (Staphylo-coccus spp.) | CC50 (HepDES19) | EC50 (RVFV strain MP-12 [2]; [6]) | EC50 (RVFV MP-12; Rift Valley fever virus, Vero) | MIC80 (C. neoformans) | also measured |
| --- | --- | --- | --- | --- | --- | --- | --- | --- | --- | --- | --- | --- | --- | --- | --- | --- |
| CC(=O)c1c(C)cc(O)c(=O)c(O)c1-c1ccccc1 [Compound 330] | 42.6 µM | 476 µM | 10.4 µM | 10.4 µM | > 120 µM | > 240 µM | 2 µM | 4.0 µM | 32.7 µM | > 120 µM | 44 µM | 56.2 µM | – | – | – | – |
| CCc1cccc(N=C(C)c2c(C)cc(=O)n(O)c2O)c1 [Compound 518] | 17.2 µM | 436 µM | 19.5 µM | 20 µM | > 120 µM | 16.5 µM | 7 µM | 24 µM | > 120 µM | > 120 µM | 67 µM | 91.4 µM | – | – | – | – |
| O=c1c(O)cccc(SCCc2ccccc2)c1O [Compound 704] | 20 µM | 25 µM | 14.3 µM | 14.3 µM | > 120 µM | 43 µM | 14 µM | 1.8 µM | 19.5 µM | 89.2 µM | 20 µM | 21.6 µM | – | – | – | – |
| O=c1c(O)cccc(S(=O)(=O)c2cccc3ccccc23)c1O [Compound 698] | – | 261 µM | 11.7 µM | – | – | – | 8 µM | 38 µM | – | – | 20 µM | 13.7 µM | – | – | – | E. coli (MIC80, μM) (E. coli): 44 µM |
| CC(C)Sc1ccc(SC(C)C)c(O)c(=O)c1O [Compound 696] | – | – | – | – | – | – | – | – | – | – | – | – | 6 µM | 12 µM | 1.5 µM (≈ 0.43 µg/mL) | MIC80 (E. coli): 20 µM (≈ 5.73 µg/mL); CC50 (in vitro [3]): 14.1 µM; MIC80 (Staphylo-coccus spp.): 13 µM (≈ 3.72 µg/mL) |
| Cc1cc(O)c(=O)c(O)cc1C(=O)c1ccccc1O [Compound 359] | – | – | – | – | – | – | – | – | – | – | – | – | 5.1 µM | 4 µM | 24 µM (≈ 6.53 µg/mL) | CC50 (in vitro [3]): 19.4 µM; CC50 (in vitro [4]; CC50): > 120 µM; IC50 (Human RNase H1): 65 µM |
| CCCCCCSc1cccc(O)c(=O)c1O [Compound 840] | 15.4 µM | 73 µM | 31.6 µM | 31.6 µM | > 120 µM | 142 µM | 14 µM | 1.0 µM | > 120 µM | > 120 µM | – | 21.5 µM | – | – | – | – |
| Cc1cc(O)c(=O)c(O)cc1C(=O)c1ccccc1O [Compound 311] | – | 26 µM | 11.8 µM | – | – | – | 3.16 µM | 15 µM | – | – | 67 µM | – | – | – | – | E. coli (MIC80, μM) (E. coli): 30 µM |
| O=C(Cc1ccccc1)Sc1cccccc1=O [Compound 680] | – | – | – | – | – | – | – | – | 23 µM | – | – | – | 6.3 µM | 0.3 µM | 0.4 µM (≈ 0.103 µg/mL) | MIC80 (E. coli): 30 µM (≈ 7.69 µg/mL); EC50 (RVFV strain MP-12 [1]; Rift Valley fever virus, A549, 24 h): 11.6 µM; CC50 (in vitro [4]; CC50): > 120 µM; CC50 (in vitro [4]; Estimated CC50): 0.9 µM; CC50 (in vitro [4]; Vero CC50): > 120 µM; IC50 (Human RNase H1): 652 µM; EC50 (RVFV strain MP-12 [2]; Rift Valley fever virus, Vero, read-out: Vero EC50): 6.3 µM; EC50 (ZIKV; Zika virus, Vero C1008, 48 h): 19.5 µM; EC50 (LACV; La Crosse virus, Vero C1008, 24 h): 31.3 µM; MIC80 (Staphylo-coccus spp.): 13 µM (≈ 3.33 µg/mL) |
| Cc1cc(O)c(=O)c(O)c(O)c1C(=O)c1ccc(-c2ccccc2)cc1 [Compound 362] | – | – | – | – | – | – | – | – | – | – | – | – | 2.5 µM | 6 µM | 24 µM (≈ 8.36 µg/mL) | CC50 (in vitro [3]): 5.4 µM; CC50 (in vitro [4]; CC50): 80 µM; IC50 (Human RNase H1): 212 µM; EC50 (RVFV strain MP-12 [2]; Rift Valley fever virus, Vero, read-out: RVFV (EC50, μM)): 2.6 µM; CC50 (Vero cells; African green monkey): 77.8 µM |
| Cc1cc(O)c(=O)c(O)cc1C(=O)c1ccc(Br)cc1 [Compound 358] | – | 43 µM | – | – | > 120 µM | – | – | 11 µM | – | – | – | 12.5 µM | – | – | – | E. coli (MIC80, μM) (E. coli): 20 µM; EC50 (RVFV strain MP-12 [2]; read-out: RVFV (EC50)): 9 µM |
| CC(=O)c1c(C)cc(O)c(=O)c(O)c1-c1cccc2ccccc12 [Compound 331] | 17.7 µM | 448 µM | 15.8 µM | 15.8 µM | 80.4 µM | > 240 µM | 2 µM | 11 µM | – | – | 67 µM | 36.6 µM | – | – | – | – |
